Results from ChEMBL document CHEMBL1144134, “New biphenyl compounds with DNA strand-scission activity from Clusia paralicola” (J Nat Prod, 1999).
≈ marks a conversion by molar mass, not a printed value. Calls of active or inactive are those of the source. No cut-off for these calls is given here.

Key:
KB = experiment: Cytotoxicity against human KB cells; type: functional, cell-based
[1] = Induction of DNA strand-scission activity assessed as relaxation of supercoiled DNA at 2.5 ug/ml; set-up: scale not given: the % may be the effect or the level left

SMILES	EC50 (KB)	Activity [1]
CC(C)=CCC/C(C)=C/Cc1cc(O)c(O)cc1-c1cc(O)c(CC=C(C)C)c(O)c1 [CLUSIPARALICOLINE A]	3.8 µg/mL (≈ 8.99 µM)	77%
CC(C)=CCC/C(C)=C/Cc1cc(O)c(O)cc1-c1cc(O)c2c(c1)OC(C)(C)C=C2 [CLUSIPARALICOLINE B]	4.5 µg/mL (≈ 10.7 µM)	65%
CC1(C)C=Cc2c(O)cc(-c3ccc(O)cc3)cc2O1 [CLUSIPARALICOLINE C]	5.3 µg/mL (≈ 19.8 µM)	inactive
